The assay has as its target T1, WT KCNT1 channels (Homo sapiens, UniProt Q5JUK3).
T1 construct: YFP-6His; expressed in transfected cells; host or cells: HEK293T
T1 sequence (Q5JUK3 1-1235 isoform Q5JUK3-3): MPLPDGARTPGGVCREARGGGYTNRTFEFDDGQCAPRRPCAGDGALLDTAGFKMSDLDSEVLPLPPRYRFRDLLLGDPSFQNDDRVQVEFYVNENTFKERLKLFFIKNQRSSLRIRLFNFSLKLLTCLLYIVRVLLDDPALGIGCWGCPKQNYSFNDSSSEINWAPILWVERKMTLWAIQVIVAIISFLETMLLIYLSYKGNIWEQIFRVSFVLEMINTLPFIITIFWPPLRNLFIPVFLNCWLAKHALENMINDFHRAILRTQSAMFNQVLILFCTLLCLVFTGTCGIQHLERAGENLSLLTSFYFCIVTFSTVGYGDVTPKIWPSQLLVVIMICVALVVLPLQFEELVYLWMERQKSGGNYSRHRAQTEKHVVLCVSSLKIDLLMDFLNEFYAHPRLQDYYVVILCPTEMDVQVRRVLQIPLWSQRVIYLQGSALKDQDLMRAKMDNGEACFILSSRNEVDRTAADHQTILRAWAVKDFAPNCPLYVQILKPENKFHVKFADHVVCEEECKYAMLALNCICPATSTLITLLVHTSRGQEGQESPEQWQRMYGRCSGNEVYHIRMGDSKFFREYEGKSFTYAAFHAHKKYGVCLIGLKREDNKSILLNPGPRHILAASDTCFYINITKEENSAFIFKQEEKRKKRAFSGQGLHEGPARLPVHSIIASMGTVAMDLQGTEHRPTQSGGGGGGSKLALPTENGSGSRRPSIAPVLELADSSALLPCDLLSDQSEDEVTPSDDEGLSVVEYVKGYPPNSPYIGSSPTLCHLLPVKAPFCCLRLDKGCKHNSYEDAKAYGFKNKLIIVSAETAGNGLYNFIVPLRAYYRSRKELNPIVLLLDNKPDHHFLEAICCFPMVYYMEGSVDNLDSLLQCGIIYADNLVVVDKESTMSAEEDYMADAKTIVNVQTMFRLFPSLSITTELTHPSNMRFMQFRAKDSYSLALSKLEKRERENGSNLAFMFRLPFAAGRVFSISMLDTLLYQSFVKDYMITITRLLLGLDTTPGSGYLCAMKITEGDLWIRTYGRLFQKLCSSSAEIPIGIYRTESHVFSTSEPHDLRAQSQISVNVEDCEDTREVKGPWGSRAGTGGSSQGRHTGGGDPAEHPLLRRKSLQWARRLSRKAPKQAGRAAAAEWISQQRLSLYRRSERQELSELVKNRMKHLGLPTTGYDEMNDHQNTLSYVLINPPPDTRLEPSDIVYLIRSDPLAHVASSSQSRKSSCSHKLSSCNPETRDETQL
The assay can be described thus: Inside-out patch clamp of HEK293T cells expressing WT KCNT1 channels. Type of assay: cell-based. Conditions: inside-out patches; for inhibition at 0.05 µM: HEK-293T, 50 nM, read-out: inhibition of WT human KCNT1 channel activity; for IC50: WT, mean ± SEM. The protocol:
The CHO cells were cultured in Dulbecco's modified Eagle's Medium (ThermoFisher, UK) supplemented with 10% (v/v) fetal bovine serum, 50 U/ml penicillin and 0.05 mg/ml streptomycin, and incubated at 37°C in 5% CO2 atmosphere. For whole cell recording of WT/Y796H KCNT1, CHO cells were transiently co‐transfected with concatemeric WT/Y796H and EYFP, as described previously.[29] For electrophysiological experiments, cells were plated onto borosilicate glass cover slips and used 2 to 4 days later. Human embryonic kidney 293T cells (HEK293T) were cultured in the same manner, but with medium supplemented with 2 mM L‐glutamine, and 1% (v/v) nonessential amino acids. For excised inside‐out recording of homomeric WT or mutant YFP‐tagged KCNT1, HEK293T cells plated on glass cover slips were transfected using Attractene Transfection Reagent (Qiagen, Germany) according to the manufacturer's instructions and used 2 to 3 days later.
Inside‐out patch clamp recordings were made at room temperature (23°C) from transiently transfected HEK293T cells, as described previously.[11] The pipette solution contained, in mM, 140 NaCl, 4 KCl, 2 CaCl2, 2 MgCl2, and 10 HEPES adjusted to pH 7.4 with NaOH. After achieving the inside‐out configuration, the intracellular face of the membrane was constantly perfused with a solution containing, in mM, 35 NaCl, 110 KCl, 0.2 EGTA, and 10 HEPES adjusted to pH 7.3 with KOH. Drug stock solutions of 5 to 20 mM in DMSO were first diluted in ethanol (1:10) and then in electrophysiological solution. KCNT1 currents were recorded using 2 voltage protocols, depending on the number of active channels in the patch before drug application. Macroscopic currents (number of active channels > 15) were recorded in response to 100 ms voltage ramps between −120 and 120 mV applied every 2 seconds from a holding potential of −78 mV. The average current amplitudes between 0 and 40 mV were used for the analyses and constructing the concentration‐response curves. With a lower number of active channels in the patch (3–15), current traces were recorded in response to 15‐second voltage steps to −20, 0, and 20 mV from a holding potential of −78 mV. Currents recorded at each voltage and each drug concentration were averaged over the duration of the trace and normalized to the average amplitudes of the corresponding current traces in drug‐free solution. The normalized data for all 3 voltage steps were then averaged for each drug concentration and used to build the concentration‐response curves (see Supplementary Fig S3). To determine the IC50, data were fitted with the Hill equation, as described previously.[11] Single channel data were analyzed using Ana software developed by Dr Michael Pusch (Istituto di Biofisica, Genova, Italy; http://users.ge.ibf.cnr.it/pusch/programs-mik.htm). In patch clamp data “n” represents number of cells, and all experiments were repeated using cells from a minimum of 2 separate transfections.
In general terms: In patch-clamp work, channel activity is measured electrically.

Structures can show the parent of a compound that is named as a salt.

`O=C(OCCN1CCN(c2cccc(C(F)(F)F)c2)CC1)c1ccccc1Nc1ccnc2cc(C(F)(F)F)ccc12` [antrafenine]: the inhibition (as a rule, the share of the control response that was lost under treatment) at 0.05 µM was above 60% and the IC50 (in general, the concentration that inhibits the measured activity by half) was 12.6 ± 3.6 nM.
The like results for `Cc1c(O)cccc1C(=O)N[C@@H](CSc1ccccc1)[C@H](O)CN1C[C@H]2CCCC[C@H]2C[C@H]1C(=O)NC(C)(C)C` [nelfinavir mesylate] were, in that order, above 60% and 14.3 ± 2.6 nM.
For `CNC(=O)c1cc(Oc2ccc(NC(=O)Nc3ccc(Cl)c(C(F)(F)F)c3)c(F)c2)ccn1` [regorafenib], the “inhibition of KCNT1 activity at 10 μM (in words)” value is reported as “not fully inhibiting”.
As to `CC(C)c1c(C(=O)Nc2ccccc2)c(-c2ccccc2)c(-c2ccc(F)cc2)n1CC[C@@H](O)C[C@@H](O)CC(=O)O` [atorvastatin], the “inhibition of KCNT1 activity at 10 μM (in words)” value is “not fully inhibiting” and the midpoint of inhibition, the IC50, lay at 1900 ± 600 nM.

(Values after PMC12682947, “Identification of New KCNT1‐Epilepsy Drugs by In Silico, Cell, and Drosophila Modeling” (Annals of Neurology, 2025).)
